Experimental data taken from PMC7827085 (Pharmaceutics, 2021).
Numbering of substitutions follows the chain as printed.

Columns and labels:
[1] = molecular target: T1, ABCB1/Pgp (Homo sapiens, UniProt P08183); experiment: ABCB1-ATPase activity in Sf9 membrane vesicles; assay type: biochemical
T1 construct: made in house; host or cells: Sf9 insect cells
Procedure: ABC transporter ATPase activity was measured in Sf9 membrane vesicles containing the respective human ABC transporters. For ABCG2/BCRP, the cholesterol level in the vesicles was increased to the level of mammalian cell membranes for full activity. For ABCB1/Pgp 20 μg/150 μL and for ABCG2/BCRP 10 μg/150 μL, vesicles were incubated with 3 mM Mg-ATP for 25 min at 37 °C. The test drugs were dissolved in DMSO and 1 µL was added to the samples. The ABC transporter-related ATPase activity was determined and reference activators (50 µM verapamil for ABCB1 and 5 µM quercetin for ABCG2) served as controls.
Drug-stimulated ATPase activity of the ABCB1 transporter is a well-documented functional assay employed to estimate the substrate or inhibitory features of various drugs. […] In this assay, most transported substrates show a biphasic curve: Low concentrations stimulate, while higher concentrations inhibit, the ATPase activity. In these experiments, we measured the vanadate-sensitive (ABC transporter-related) ABCB1-ATPase activity in membrane vesicles isolated from ABCB1 overexpressing Sf9 cells.

[2] = molecular target: T2, wild-type ABCG2 (Homo sapiens, UniProt Q9UNQ0); experiment: Hoechst 33342 dye extrusion in HeLa cells expressing wild-type ABCG2; assay type: cell-based; conditions: wild-type ABCG2, 0.2 µM Hoechst 33342, full inhibition by 1 µM Ko143
T2 construct: expressed in transfected cells; host or cells: HeLa (Sleeping Beauty transposon system)
T2 sequence (Q9UNQ0 1-655): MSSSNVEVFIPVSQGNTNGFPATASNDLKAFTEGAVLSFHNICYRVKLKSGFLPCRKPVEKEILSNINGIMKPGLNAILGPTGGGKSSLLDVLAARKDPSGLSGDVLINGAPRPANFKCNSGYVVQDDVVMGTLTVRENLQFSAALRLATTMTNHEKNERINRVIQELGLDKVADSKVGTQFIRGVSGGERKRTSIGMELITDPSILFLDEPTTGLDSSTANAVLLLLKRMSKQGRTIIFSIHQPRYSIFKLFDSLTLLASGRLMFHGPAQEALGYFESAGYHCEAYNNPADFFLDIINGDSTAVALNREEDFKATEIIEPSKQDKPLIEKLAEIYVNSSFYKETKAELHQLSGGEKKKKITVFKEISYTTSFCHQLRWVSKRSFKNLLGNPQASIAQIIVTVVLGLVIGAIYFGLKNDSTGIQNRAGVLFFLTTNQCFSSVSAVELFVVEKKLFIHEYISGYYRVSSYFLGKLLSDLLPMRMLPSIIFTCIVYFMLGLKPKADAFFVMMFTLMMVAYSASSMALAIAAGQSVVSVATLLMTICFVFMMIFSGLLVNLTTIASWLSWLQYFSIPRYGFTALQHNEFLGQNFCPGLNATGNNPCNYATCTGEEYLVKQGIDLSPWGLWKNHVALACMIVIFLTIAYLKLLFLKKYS

[3] = molecular target: T3, Q141K-ABCG2 variant (Homo sapiens, UniProt Q9UNQ0, Q141K); experiment: Hoechst 33342 dye extrusion in HeLa cells expressing Q141K-ABCG2; assay type: cell-based; conditions: Q141K-ABCG2 variant vs WT
T3 construct: expressed in transfected cells; host or cells: HeLa (Sleeping Beauty transposon system)
T3 sequence (Q9UNQ0 1-655 Q141K): T2 sequence (Q9UNQ0 1-655) with Q141K

[4] = molecular target: ABCC1/MRP1 (Homo sapiens, UniProt P33527); experiment: in vitro
ABCC1/MRP1, sequence (P33527 whole entry): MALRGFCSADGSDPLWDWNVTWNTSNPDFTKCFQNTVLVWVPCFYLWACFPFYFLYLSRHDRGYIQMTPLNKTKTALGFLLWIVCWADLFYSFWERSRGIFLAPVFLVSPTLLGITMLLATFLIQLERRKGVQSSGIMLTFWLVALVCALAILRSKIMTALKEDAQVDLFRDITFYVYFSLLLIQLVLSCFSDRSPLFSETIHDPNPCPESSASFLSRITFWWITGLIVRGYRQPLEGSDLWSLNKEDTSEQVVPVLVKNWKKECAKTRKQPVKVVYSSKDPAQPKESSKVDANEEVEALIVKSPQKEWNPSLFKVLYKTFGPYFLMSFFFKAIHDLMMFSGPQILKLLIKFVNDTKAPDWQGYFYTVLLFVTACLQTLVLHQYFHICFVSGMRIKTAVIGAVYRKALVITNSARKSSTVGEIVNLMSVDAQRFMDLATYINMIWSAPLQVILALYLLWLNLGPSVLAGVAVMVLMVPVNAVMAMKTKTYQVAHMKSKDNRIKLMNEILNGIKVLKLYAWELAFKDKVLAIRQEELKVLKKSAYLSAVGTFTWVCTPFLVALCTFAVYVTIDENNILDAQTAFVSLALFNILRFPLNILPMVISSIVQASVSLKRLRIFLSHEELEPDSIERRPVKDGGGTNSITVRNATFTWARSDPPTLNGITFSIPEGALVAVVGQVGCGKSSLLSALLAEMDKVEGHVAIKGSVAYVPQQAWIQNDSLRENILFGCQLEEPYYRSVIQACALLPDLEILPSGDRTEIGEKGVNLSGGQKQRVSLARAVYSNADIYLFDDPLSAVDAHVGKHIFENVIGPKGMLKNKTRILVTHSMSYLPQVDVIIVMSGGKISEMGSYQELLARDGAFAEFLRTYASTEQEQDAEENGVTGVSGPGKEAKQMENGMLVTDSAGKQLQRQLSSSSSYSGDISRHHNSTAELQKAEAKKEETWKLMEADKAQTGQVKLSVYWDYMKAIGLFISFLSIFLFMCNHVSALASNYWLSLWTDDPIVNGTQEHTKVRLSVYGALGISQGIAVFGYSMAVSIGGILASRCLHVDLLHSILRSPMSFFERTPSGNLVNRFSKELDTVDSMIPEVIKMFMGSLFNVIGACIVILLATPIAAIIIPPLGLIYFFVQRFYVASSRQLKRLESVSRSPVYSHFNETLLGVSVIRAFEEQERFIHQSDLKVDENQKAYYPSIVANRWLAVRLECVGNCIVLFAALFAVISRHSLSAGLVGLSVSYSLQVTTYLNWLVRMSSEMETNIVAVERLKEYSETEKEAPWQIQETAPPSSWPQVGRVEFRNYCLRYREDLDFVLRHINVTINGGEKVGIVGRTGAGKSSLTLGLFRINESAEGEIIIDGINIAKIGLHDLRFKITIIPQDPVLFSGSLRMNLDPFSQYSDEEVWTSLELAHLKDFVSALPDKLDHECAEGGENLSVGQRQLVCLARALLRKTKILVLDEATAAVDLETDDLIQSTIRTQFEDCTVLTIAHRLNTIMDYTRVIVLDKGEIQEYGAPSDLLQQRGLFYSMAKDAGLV

[5] = molecular target: T4, OATP1A2 (Homo sapiens, UniProt P46721); experiment: cell-based
T4 sequence (P46721 1-670): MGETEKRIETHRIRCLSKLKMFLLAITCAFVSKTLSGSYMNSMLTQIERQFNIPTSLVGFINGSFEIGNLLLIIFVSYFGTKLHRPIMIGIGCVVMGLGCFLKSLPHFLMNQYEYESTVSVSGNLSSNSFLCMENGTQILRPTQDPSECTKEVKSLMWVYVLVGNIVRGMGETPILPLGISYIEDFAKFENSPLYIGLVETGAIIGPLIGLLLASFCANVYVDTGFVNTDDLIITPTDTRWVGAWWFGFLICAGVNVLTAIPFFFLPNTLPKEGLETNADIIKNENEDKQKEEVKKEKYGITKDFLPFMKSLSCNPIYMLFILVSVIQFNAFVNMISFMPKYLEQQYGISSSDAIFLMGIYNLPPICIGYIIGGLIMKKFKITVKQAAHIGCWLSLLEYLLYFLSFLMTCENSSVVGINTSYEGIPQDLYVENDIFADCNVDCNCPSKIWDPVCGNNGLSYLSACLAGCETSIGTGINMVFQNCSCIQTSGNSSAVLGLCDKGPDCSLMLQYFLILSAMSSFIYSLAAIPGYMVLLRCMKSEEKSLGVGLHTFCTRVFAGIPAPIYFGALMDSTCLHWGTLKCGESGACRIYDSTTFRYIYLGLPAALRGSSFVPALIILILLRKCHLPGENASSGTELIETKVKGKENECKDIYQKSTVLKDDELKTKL

[6] = molecular target: T5, OATP2B1 (Homo sapiens, UniProt O94956); experiment: cell-based
T5 sequence (O94956 1-709): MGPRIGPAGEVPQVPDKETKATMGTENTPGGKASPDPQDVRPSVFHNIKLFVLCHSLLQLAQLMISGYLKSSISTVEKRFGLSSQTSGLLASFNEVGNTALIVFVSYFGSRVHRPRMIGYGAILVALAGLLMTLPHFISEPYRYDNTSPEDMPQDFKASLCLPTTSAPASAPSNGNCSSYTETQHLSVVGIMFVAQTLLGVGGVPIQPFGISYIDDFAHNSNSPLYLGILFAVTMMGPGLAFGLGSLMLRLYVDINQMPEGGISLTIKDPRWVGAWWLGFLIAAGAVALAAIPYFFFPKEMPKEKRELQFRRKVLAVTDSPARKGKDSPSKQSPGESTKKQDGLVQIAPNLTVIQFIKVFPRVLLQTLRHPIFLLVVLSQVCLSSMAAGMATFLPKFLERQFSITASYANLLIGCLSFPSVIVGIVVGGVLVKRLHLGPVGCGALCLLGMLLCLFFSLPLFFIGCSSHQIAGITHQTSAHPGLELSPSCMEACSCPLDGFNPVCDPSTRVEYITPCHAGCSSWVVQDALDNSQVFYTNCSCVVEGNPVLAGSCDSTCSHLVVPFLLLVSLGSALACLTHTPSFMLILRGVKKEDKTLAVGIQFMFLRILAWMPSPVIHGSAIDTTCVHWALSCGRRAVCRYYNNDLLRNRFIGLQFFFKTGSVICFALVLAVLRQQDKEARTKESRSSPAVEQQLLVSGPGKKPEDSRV

[7] = molecular target: T6, ABCG2/BCRP (Homo sapiens, UniProt Q9UNQ0); experiment: ABCG2-ATPase activity in Sf9 membrane vesicles; assay type: biochemical; parameters: expressed in transfected cells; host or cells: PLB-985; conditions: Sf9/ABCG2 membranes; ivermectin, ritonavir, lopinavir at low micromolar, remdesivir at higher concentrations
T6 sequence (Q9UNQ0 1-655): T2 sequence (Q9UNQ0 1-655)
Procedure: ABC transporter ATPase activity was measured in Sf9 membrane vesicles containing the respective human ABC transporters [46, 47, 48, 49, 50]. For ABCG2/BCRP, the cholesterol level in the vesicles was increased to the level of mammalian cell membranes for full activity [49]. For ABCB1/Pgp 20 μg/150 μL and for ABCG2/BCRP 10 μg/150 μL, vesicles were incubated with 3 mM Mg-ATP for 25 min at 37 °C. The test drugs were dissolved in DMSO and 1 µL was added to the samples. The ABC transporter-related ATPase activity was determined and reference activators (50 µM verapamil for ABCB1 and 5 µM quercetin for ABCG2) served as controls.
Drug-stimulated ATPase activity of the ABCG2 transporter was also measured in the present study.

T1 sequence (P08183 whole entry): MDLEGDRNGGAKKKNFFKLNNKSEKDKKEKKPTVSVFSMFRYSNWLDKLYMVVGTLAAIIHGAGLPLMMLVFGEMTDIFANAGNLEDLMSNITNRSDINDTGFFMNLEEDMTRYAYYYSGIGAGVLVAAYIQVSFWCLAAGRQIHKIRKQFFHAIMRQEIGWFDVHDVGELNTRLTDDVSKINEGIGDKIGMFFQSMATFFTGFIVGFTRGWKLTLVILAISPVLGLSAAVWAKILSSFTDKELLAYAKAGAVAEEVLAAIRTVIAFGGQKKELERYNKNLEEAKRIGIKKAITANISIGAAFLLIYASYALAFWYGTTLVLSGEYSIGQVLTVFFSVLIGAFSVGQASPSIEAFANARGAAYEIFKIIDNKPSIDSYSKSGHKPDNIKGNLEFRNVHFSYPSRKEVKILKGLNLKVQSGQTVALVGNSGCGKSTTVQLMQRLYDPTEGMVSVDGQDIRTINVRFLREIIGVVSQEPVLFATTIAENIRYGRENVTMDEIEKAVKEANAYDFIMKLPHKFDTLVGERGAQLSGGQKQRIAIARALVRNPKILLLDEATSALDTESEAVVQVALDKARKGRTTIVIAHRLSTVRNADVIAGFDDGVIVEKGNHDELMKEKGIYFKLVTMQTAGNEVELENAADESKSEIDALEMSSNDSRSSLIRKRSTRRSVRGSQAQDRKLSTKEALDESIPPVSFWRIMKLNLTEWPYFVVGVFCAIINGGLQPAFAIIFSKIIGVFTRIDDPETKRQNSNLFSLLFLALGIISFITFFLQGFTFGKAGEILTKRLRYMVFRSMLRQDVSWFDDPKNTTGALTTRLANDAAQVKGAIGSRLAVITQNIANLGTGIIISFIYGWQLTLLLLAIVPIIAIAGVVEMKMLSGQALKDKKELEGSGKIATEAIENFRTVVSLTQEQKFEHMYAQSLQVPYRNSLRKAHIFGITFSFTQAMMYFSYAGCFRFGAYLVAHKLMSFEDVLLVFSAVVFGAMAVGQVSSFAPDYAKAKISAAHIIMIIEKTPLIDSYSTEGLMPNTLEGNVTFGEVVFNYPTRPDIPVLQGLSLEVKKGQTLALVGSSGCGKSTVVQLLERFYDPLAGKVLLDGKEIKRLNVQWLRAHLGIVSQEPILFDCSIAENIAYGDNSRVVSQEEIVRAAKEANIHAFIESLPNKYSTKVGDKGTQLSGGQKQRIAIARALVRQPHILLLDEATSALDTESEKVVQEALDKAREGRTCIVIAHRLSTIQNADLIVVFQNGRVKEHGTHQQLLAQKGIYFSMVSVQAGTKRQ

`Cc1cccc(C)c1OCC(=O)N[C@@H](Cc1ccccc1)[C@@H](O)C[C@H](Cc1ccccc1)NC(=O)[C@H](C(C)C)N1CCCNC1=O` [lopinavir] was tested, and the “Concentration of maximal ABCB1-ATPase stimulation” value ([1]; Sf9/ABCB1 membranes) was “around 0.5 µM”, the “Effect on ABCB1-ATPase activity (in words)” value ([1]; Sf9/ABCB1 membranes, 50 µM verapamil as reference activator) was “significant ABCB1-ATPase stimulation” and the “Effect on ABCB1-ATPase activity at higher concentrations (in words)” value ([1]; at higher concentrations) was “inhibitory effects”. For the same compound, the “Effect on Hst dye extrusion by ABCG2 in HeLa cells (in words)” value [2] was “inhibited”, the “Inhibition of Hst dye extrusion in Q141K-ABCG2 HeLa cells compared with wild type (in words)” value [3] was “significantly stronger inhibition” and the inhibition at 3 min [4] was 60%. For the same compound, the IC50 [5] was 1500 nM, the IC50 [6] was 1000 nM and the “Effect on baseline ABCG2-ATPase activity (in words)” value [7] was “significantly inhibited”.
